Data set [1] relates to rats. In words: Neurotoxicity (TOX), behavioral tests, rats. The data set is classed as in vivo. The procedure: (§1) In mice, the neurological deficit was measured by the rotarod test in which a 1 inch diameter knurled plastic rod rotating at 6 rpm was used. Tests were performed at 0.25 h or 0.5 h of intraperitoneal or oral administration of the certain dose of the compounds KM-568. Each mouse was placed on the rod. If the animal was not able to remain on the rod for at least 1 min in each of three trials, the neurotoxicity was scored. In rats, the neurological deficit was measured in behavioral tests and scored when ataxia and loss of placing response and muscle tone were observed. Tests in rats were performed after 0.5 h of intraperitoneal administration or 1.0 h of oral administration of the certain dose of compound KM-568. TD50s were calculated by probit analysis.

Data set [2] is described as follows: Neurotoxicity (TOX), behavioral tests, rats. The data set is classed as in vivo. To be noted: rat, in vivo. As to the method: as §1
Data set [3] has as its system rats. The data set can be described thus: Pilocarpine-induced status epilepticus model. The data set is classed as in vivo. As to the method: Compound KM-568 was tested in rats at the doses in the range 200–400 mg/kg i.p. in a pilocarpine-induced status epilepticus model. After administration of pilocarpine, at the time point when a convulsive effect of at least level 3 in the Racine scale was noted (time 0 h) and 0.5 h afterwards (time 0.5 h), KM-568 was administered intraperitoneally at a certain dose.
Pilocarpine was administered intraperitoneally into rats at the dose of 50 mg/kg. Each animal was being observed. The time point when the convulsive effect at the level of at least 3 in the Racine scale was noted (time 0 h), and, 0.5 h (time 0.5 h) afterwards, KM-568 was administered.

Data set [4] can be described thus: Ames microplate format (MPF) assay, TA98. To be noted: Salmonella typhimurium. The source says: The Ames microplate format (MPF) mutagenicity assay (Xenometrix, Allschwil, Switzerland) was used to test KM-568 mutagenicity. Growth, exposure, and indicator media, positive control chemicals, and four Salmonella typhimurium strains TA98, TA100, TA1535 and TA1537 were included in the kit. TA100 and TA1535 strains detect base substitution mutations, whereas TA98 and TA1537 indicate frameshift mutations. The strains of bacteria included in a kit are in compliance with the Organization for Economic Cooperation and Development (OECD) 471 Guideline for Testing of Chemicals.
The assay is a liquid microplate modification of the traditional Salmonella test. During the procedure, bacteria are exposed to different concentrations of a test compound for 90 min in a medium containing sufficient histidine to support cell divisions. Then, the cultures are diluted in a pH indicator medium lacking histidine and aliquoted into 48 wells of a 384-well plate. Within 2 days, bacteria that have undergone reversion to amino acid prototrophy will form colonies. Products of bacteria metabolism reduce pH of the medium, changing the color of wells from purple to yellow.
The test procedure provided by Xenometrix and described in detail elsewhere was followed. Bacterial strains were grown overnight (14–16 h) in exposure medium in a shaker incubator and then exposed to KM-568 in 24-well plates for 90 min at 37 °C with agitation. Final KM-568 concentrations in the assay were 0.1, 0.2, and 0.5 mM. After preincubation, the cultures were diluted in the indicator medium and the contents of each 24-well culture were transferred to 48 wells on a 384-well plate and incubated further for 48 h at 37 °C without agitation. After the exposure, the number of wells containing bacteria was scored for yellow wells. […] Pure DMSO was used as a negative control. All doses were performed in triplicate.
The fold increase of revertants relative to the solvent control was determined by dividing the mean number of positive wells at each dose by the solvent control at baseline. The solvent control at baseline was calculated as the mean number of positive wells in the solvent control plus one standard deviation (SD). When an increase of more than twofold relative to the baseline at more than one dose with a dose–response was observed, the sample was classified as positive, whereas when no response > 2 times the baseline and no dose–response was stated, the sample was classified as negative.

The test system of a further data set is HepG2 cells. In words: MTT cytotoxicity assay, HepG2. The class given is cell-based, human. The procedure: Human liver cancer HepG2 cell line (ATCC HB8065) and rat cardiomyoblast cell line H9c2 (ATCC-CRL1446) were purchased in ATCC (American Type Culture Collection, Manassas, VA, USA). The cells were cultured in standard conditions (37 °C, 5% CO2) in EMEM medium (ATCC, Manassas, VA, USA), supplemented with 10% FBS (Gibco, Waltham, MA, USA) and antibiotics (1% streptomycin/penicillin mixture, Sigma–Aldrich, Darmstadt, Germany) or DMEM high glucose (ATCC, Manassas, VA, USA) supplemented with 10% FBS (Gibco, Waltham, MA, USA) and antibiotics (1% streptomycin/penicillin mixture, Sigma–Aldrich, Darmstadt, Germany), respectively.
The MTT colorimetric assay was used to determine the cytotoxic effects of the KM-568 and DOX (Sigma–Aldrich, Darmstadt, Germany). Cells were seeded at a density of 1 × 10^4 in 96-well plates. Following overnight culture, the cells were then treated with KM-568 and DOX in concentration range 0.1–200 µM (hepatocytotoxicity) or 0.1–100 µM (cardiocytotoxicity). Following cell exposure to each drug for 24 h in 96 well plates, 10 µL MTT reagent (Sigma–Aldrich, Darmstadt, Germany) was added to each well; after 4 h of incubation (37 °C, 5% CO2), the medium was aspirated and formazan produced in cells appeared as dark crystals in the bottom of the wells. […] Then, absorbance was measured at 570 nm on a multi-well plate reader (Spectra Max iD3, Molecular Devices, San Jose, CA, USA). […]

Bounds are passed on as bounds.

Usually TD50 stands for the 50% point of the dose-response relation for the toxic effect studied. A word on the ED50: it is the dose at which the effect has come halfway, by size or by number of responders. A high value points to a need for a large dose. As usually defined, the fold induction is the signal under treatment as a multiple of the control signal. Regarding `C[C@H](O)CNC(=O)/C=C/c1ccccc1` [KM-568, S(+)-(2E)-N-(2-hydroxypropyl)-3-phenylprop-2-enamide], the “TOX Results (animals displaying neurotoxicity/animals used)” value in the data set with rats [1] (i.p., 60 mg/kg, 0.5 h) was 0/8; with rats [1] (i.p., 80 mg/kg, 0.5 h) it was 0/8; in the data set with rats [1] (i.p., 100 mg/kg, 0.5 h) it was 2/8; in the data set on rats [1] (i.p., 120 mg/kg, 0.5 h), 5/8; in the data set with rats [1] (i.p., 140 mg/kg, 0.5 h), 7/8; in the data set with rats [1] (p.o., 125.0 mg/kg, 1.0 h) it was 0/2. Moreover, the “TOX Results (animals displaying neurotoxicity/animals used)” value with rats [1] (p.o., 250.0 mg/kg, 1.0 h) was 0/2; in the data set on rats [1] (p.o., 500.0 mg/kg, 1.0 h), 0/2. Besides, in data set [2] (ip, 0.5 h, 95% confidence interval in parentheses), the TD50 at 0.5 h amounted to 95.2 mg/kg. The compound also displayed a TD50 at 1 h in data set [2] (po, 1.0 h) greater than 500 mg/kg. In the data set with rats [3] (Rattus norvegicus, ip, 0.5 h, given at time 0.5 h), this compound displayed an ED50 of 297 mg/kg. Moreover, the “Results (protected/tested animals)” value in the data set with rats [3] (i.p., 200 mg/kg, given at time 0 h) is given as 8/8; with rats [3] (i.p., 200 mg/kg, given at time 0.5 h), 1/8; in the data set with rats [3] (i.p., 300 mg/kg, given at time 0.5 h), 5/8; in the data set on rats [3] (i.p., 400 mg/kg, given at time 0.5 h), 7/8. In addition, the “ED50, pilocarpine-induced status epilepticus” value in the data set on rats [3] (i.p., given at time 0.5 h) is listed as 279.45 (212.61–344.62) mg/kg. The “ED97, pilocarpine-induced status epilepticus” value with rats [3] (i.p., given at time 0.5 h) was 498.2 (378.3–1526.9) mg/kg. Also, in data set [4], the fold induction at 90 min, 0.1 mM stood at 0.1. In addition, in data set [4], the fold induction at 90 min, 0.2 mM stood at 0.9. For the same compound, in data set [4], the fold induction at 90 min, 0.5 mM is 0.7. Also, the “percent of living cells” value in the data set with HepG2 cells (HepG2, 24 h incubation with 100 µM) is given as roughly 100%. For the same compound, the “cytotoxic effect, MTT assay” value in the data set on HepG2 cells (HepG2, up to 100 µM, 24 h) is recorded as “no cytotoxic effect”.

The values are drawn from PMC7352759, “S(+)-(2E)-N-(2-Hydroxypropyl)-3-Phenylprop-2-Enamide (KM-568): A Novel Cinnamamide Derivative with Anticonvulsant Activity in Animal Models of Seizures and Epilepsy” (International Journal of Molecular Sciences, 2020).
